Assay results reported in patent publication US6645529B2, “Instant granules and process for their formulation” (Dr. Gergely & Co., priority 2000, dated 2003).

What was measured:
[1] = dissolving times of different carrier materials; format: physicochemical; conditions: 10 g in 100 ml water of 17° C., stirred at 500 rpm, visual
Procedure: Testing conditions: 10 g of each carrier material was added to 100 ml water of 17° C. in a 400 ml beaker and stirred at 500 rpm by a magnetic stirrer. Dissolution was determined visually.

[2] = bulk density; format: physicochemical; conditions: for bulk density (g/100 ml): Table 1, preferred carrier materials; for Bulk density in g/100 ml: Table 3, carrier materials
[3] = listed as mannitol (fine granulated)

SMILES	Dissolving time [1] [s]	bulk density (g/100 ml) [2] [g/100 ml]	Bulk density in g/100 ml [2] [g/100 ml]	Dissolving time [1, 3] [s]	Bulk density in g/100 ml [2, 3] [g/100 ml]
O.O.O=C([O-])CC(O)(CC(=O)[O-])C(=O)[O-].[Na+].[Na+].[Na+] [trisodiumcitrate.2H2O]	85	95	95		
OC[C@@H](O)[C@@H](O[C@H]1O[C@H](CO)[C@@H](O)[C@H](O)[C@H]1O)[C@H](O)[C@@H](O)CO [hydrogenated maltose]	200	90	90		
OC[C@@H](O)[C@@H](O)[C@H](O)[C@H](O)CO [mannitol (spray dried), mannitol]	55	45	45		
OC[C@@H](O)[C@@H](O)[C@H](O)[C@H](O)CO [mannitol]		63		95	62
O.O=P([O-])(O)O.O=P([O-])(O)O.[Ca+2] [monocalcium phosphate.H2O]		82			
OC[C@H]1O[C@@](CO)(O[C@H]2O[C@H](CO)[C@@H](O)[C@H](O)[C@H]2O)[C@@H](O)[C@@H]1O [instant sugar]	15	50	45		
OC[C@H]1O[C@@](CO)(O[C@H]2O[C@H](CO)[C@@H](O)[C@H](O)[C@H]2O)[C@@H](O)[C@@H]1O [saccharose (coarse grain), saccharose]		88			
OC[C@@H](O)[C@@H](O)[C@H](O)[C@@H](O)CO [sorbitol (spray dried), sorbitol]	50	45	45		
OC[C@@H](O)[C@@H](O)[C@H](O)[C@@H](O)CO [sorbitol]	90	58	58		
OC[C@H]1O[C@@H](O[C@H]2[C@H](O)[C@@H](O)C(O)O[C@@H]2CO)[C@H](O)[C@@H](O)[C@H]1O (stereo partly drawn) [lactose]	120	69	69		
OC[C@H]1O[C@@](CO)(O[C@H]2O[C@H](CO)[C@@H](O)[C@H](O)[C@H]2O)[C@@H](O)[C@@H]1O [saccharose (fine grain), saccharose]		81			
